Laboratory results: patent publication US8173392B2, “In vivo incorporation of unnatural amino acids” (The Scripps Research Institute, priority 2001, dated 2012)

Assays:
[1] = system: valine positions, mutant ValRS; conditions: mutant E. coli strain grown in presence of Abu; cited from earlier work
[2] = system: cells expressing m-acetyl phenylalanine-incorporated DHFR
Procedure: Cells expressing the “ketone handle”-incorporated DHFR were incubated with fluorescein hydrazide solution. After 36 hours at 4° C. and extensive washes to remove excess fluorescein hydrazide, the labeled DHFR protein was purified and subjected to fluorescence emission tests. As a negative control in parallel, m-methoxy phenylalanine-incorporated DHFR was also purified with the same procedures.

[3] = system: yeast amber suppressor tRNAPheCUA/phenylalanyl-tRNA synthetase pair; conditions: cited from earlier work
SjGST homodimer = assay: photo-activated crosslinking of SjGST (365 nm, SDS-PAGE); parameters: species or system Schistosoma Japonica; conditions: long wavelength UV irradiation, 5 minutes
Text: In vivo incorporation of pBpa into GST. […] This protein is a dimer of two identical subunits which have previously been crosslinked non-specifically using gluteraldehyde. The crystal structure of the dimeric Schistosoma Japonica glutathione-S-transferase (SjGST) (McTigue, M. A., Williams, D. R. & Tainer, J. A. Journal of Molecular Biology 246, 21-27 (1995)) was used to identify two sites to substitute with pBp: residue Phe52, which is buried in the dimer interface of the crystal structure, and residue Tyr198 which is solvent exposed. The codons corresponding to Phe52 or Tyr198 in the gene for a 27 kDa protein Sj GST, were replaced with amber codons. The orthogonal synthetase tRNA pair was then used to site specifically incorporate pBpa into SjGST in E. coli at these sites. Upon irradiation with long wavelength ultraviolet radiation, purified SjGST was converted to a covalently linked homodimer as judged by denaturing SDS PAGE. Approximately 70% of the SjGST present was crosslinked in 5 minutes.
Photo-activated crosslinking. Crosslinking reactions were performed in a 96 well microtitre plate (Nuncsorb) using 100 μL of 10 ng/μL SjGST (in 50 mM NaH2Po4, 300 mM NaCl, 250 mM imidazole) at 4° C. Samples were irradiated at 365 nm using a handheld UV lamp (1 SV, 60 Hz, 0.2 A; Spectronics, NY, USA), for 1 min or 5 min. […]

mutant TyrRS (LWJ16) = biological target: T1, mutant TyrRS (LWJ16) (Methanocaldococcus jannaschii, UniProt Q57834, D158A/E107T/L162P/N268S/Y32Q); assay: pyrophosphate-exchange assay (adenylate formation with ATP); format: biochemical, M. jannaschii; conditions: for Kcat / Km: 37° C., pH7.5
T1 construct: The mutant TyrRS (LWJ16) gene with six histidines at its C-terminus was cloned into plasmid pQE-60; His6 (C); made in house
Procedure: Kinetics of adenylate formation of O-methyl-L-tyrosine and tyrosine with ATP catalyzed by the mutant TyrRS (LWJ16) were analyzed in vitro using a pyrophosphate-exchange assay. The mutant TyrRS (LWJ16) gene with six histidines at its C-terminus was cloned into plasmid pQE-60 (Qiagen, CA) to afford plasmid pQE-mJYRS. Protein was purified by immobilized metal affinity chromatography according to manufacture's protocol (Qiagen, CA). Pyrophosphate (PPi) exchange was carried out at 37° C. in a reaction mixture containing 100 mM Tris HCl (pH7.5), 10 mM KF, 5 mM MgCl2, 2 mM ATP, 2 mM NaPPi, 0.1 mg/mL bovine serum albumin, approximately 0.01 microCi/mL [32P]NaPPi, and various concentrations of tyrosine or O-methyl-L-tyrosine. Reactions were initiated with the addition of the purified mutant TyrRS (LWJ16), and aliquots were periodically taken and quenched with 0.2 M NaPPi, 7% perchloric acid, and 2% activated charcoal. The charcoal was filtered and washed with 10 mM NaPPi (pH2), then measured by scintillation counting to determine the 32P levels in charcoal-adsorbed ATP. Values of kcat and Km were calculated by direct fitting of the Michaelis-Menten equation using nonlinear regression analysis.

E. coli = assay: effect of the amino acid on growth rate of E. coli; format: cell-based; conditions: 1 mM
Procedure: Following the two rounds of selection and DNA shuffling, a clone (mutant TyrRS (LWJ16)) was evolved whose survival in chloramphenicol was dependent on the addition of 1 mM O-methyl-L-tyrosine to the growth media. In the absence of O-methyl-L-tyrosine, cells harboring the mutant TyrRS (LWJ16) were not viable on minimal media plates containing 1% glycerol, 0.3 mM leucine (GMML), and 15 micrograms/mL of chloramphenicol. Cells were able to grow on GMML plates with 125 micrograms/mL chloramphenicol in the presence of 1 mM O-methyl-L-tyrosine. Similar results were obtained in liquid GMML.

[4] = system: Asp112TAG codon in the CAT gene; assay: in vivo chloramphenicol acetyltransferase assay (suppression of Asp112TAG codon in CAT gene, pYC-J17); format: cell-based, E. coli; conditions: GMML plates
Procedure: A positive selection was then applied that is based on suppression of an amber stop codon at a nonessential position (Asp112) in the chloramphenicol acetyltransferase (CAT) gene (M. Pastrnak, T. J. Magliery, P. G. Schultz, Helvetica Chimica Acta. 83, 2277-86 (2000)). Cells were grown in media containing the unnatural amino acid and selected for their survival in the presence of various concentration of chloramphenicol. If a mutant TyrRS charges the orthogonal mtRNACUA^Tyr with any amino acid, either natural or unnatural, the cell produces CAT and survives.
The gene encoding mtRNACUA^Tyr under the control of the lpp promoter and rrnC terminator was inserted into plasmid pACMD112TAG (a pACYC184 plasmid with a TAG stop codon replacing Asp112 in its CAT gene (M. Pastrnak, T. J. Magliery, P. G. Schultz, Helvetica Chimica Acta. 83, 2277-86 (2000))) to afford plasmid pYC-J17. Supercoiled DNA encoding the TyrRS library was transformed into E. coli DH10B competent cells containing pYC-J17 to yield a library of size greater than 3×10^9 cfu, ensuring complete coverage of the original library. Cells were then plated on minimal media plates containing 1% glycerol and 0.3 mM leucine (GMML) with 17 micrograms/mL tetracycline(Tet), 25 micrograms/mL kanamycin (Kan), 50 micrograms/mL of chloramphenicol (Cm), and 1 mM unnatural amino acid. […]

[5] = system: amber codons in T7 RNA polymerase gene driving GFPuv; assay: fluorimetric analysis, T7 RNA polymerase/GFPuv reporter (pREP/YC-JYCUA); format: cell-based, E. coli; conditions: presence versus absence of OAT
Procedure: Construction of a multipurpose reporter plasmid. In order to construct a multipurpose plasmid to be used both for selecting and screening variants of a M. jannaschii TyrRS, plasmid pREP(10) was combined with plasmid pYC-J17 (Wang, L, Brock, A., Herberich, B. & Schultz, P. G., Science, 2001, 292, 498-500) to obtain pREP/YC-JYCUA (FIG. 7b). Plasmid pREP/YC-JYCUA was assayed for function with a compatible plasmid expressing a variant of M. jannaschii TyrRS (pBK-mJYRS; Wang, L, Brock, A., Herberich, B. & Schultz, P. G., Science, 2001, 292, 498-500) selective for incorporating O-Methyl-Tyrosine (OMY).
As described above, the T7 RNA polymerase/GFP system can be used to quantitatively compare the activities of synthetase variants. […] The fluorescence enhancement for cells grown in the presence versus the absence of the unnatural amino acid is thus about 6-fold higher for cells expressing OAT-RS (1) from selection and screening than for cells expressing the OAT-RS clone derived from positive/negative selection using barnase. […] However, the fluorescence enhancement for cells grown in the presence versus the absence of an unnatural amino acid is expected to represent a lower limit for the fidelity of unnatural amino acid incorporation, as competition of unnatural amino acids for being bound by an evolved synthetase variant would reduce binding of natural amino acids. […]

For `CCC(N)C(=O)O` (centres unmarked) [Abu, aminobutyrate], which “valines replaced at each valine position in the native protein” value [1] is on record?
Its value is “about 24%”.

Which results are given for `NN1C(=O)c2ccccc2C12c1ccc(O)cc1Oc1cc(O)ccc12` [fluorescein hydrazide]?
cell permeability [2]: cell-permeable; lysis of cells [2]: does not lyse cells

Which “amino acid found at the Phe codon positions” value [3] does the source give for `N[C@@H](Cc1ccc(F)cc1)C(=O)O` [p-F-Phe, p-fluorophenylalanine] here?
Its value is 7%.

And the “translation of the mutagenesis site with the amino acid” value ([3]; excess of p-F-Phe in growth media)?
Its value is 64-75%.

With “SjGST: Schistosoma Japonica glutathione-S-transferase with pBpa, presumably at Phe52 in the dimer interface” as the molecule, how does the “SjGST crosslinked to covalent homodimer” value (SjGST homodimer) read?
Its value is “Approximately 70%”.

Which “Km higher than that for O-methyl-L-tyrosine” value (mutant TyrRS (LWJ16)) does the source give for `N[C@@H](Cc1ccc(O)cc1)C(=O)O` [L-tyrosine] here?
The value was “approximately 13 fold”.

And the “kcat down relative to that for O-methyl-L-tyrosine” value (mutant TyrRS (LWJ16))?
Its value is 8 fold.

And the Kcat (mutant TyrRS (LWJ16))?
Its Kcat is 1.8 ± 0.2 10 − 3 s − 1.

And the Km (mutant TyrRS (LWJ16))?
Its Km is 5.83 mM.

Which results are given for `COc1ccc(C[C@H](N)C(=O)O)cc1` [O-methyl-L-tyrosine]?
effect on growth rate of E. coli (E. coli): does not significantly affect the growth rate; kcat/Km higher than that of tyrosine (mutant TyrRS (LWJ16)): about 100 fold; Kcat (mutant TyrRS (LWJ16)): 14 ± 1 10 − 3 s − 1; Km (mutant TyrRS (LWJ16)): 0.443 mM

B1: mutant TyrRS (LWJ16) (protein, listed as Methanococcus jannaschii)
chain: MDEFEMIKRNTSEIISEEELREVLKKDEKSAQIGFEPSGKIHLGHYLQIKKMIDLQNAGFDIIILLADLHAYLNQKGELDEIRKIGDYNKKVFEAMGLKAKYVYGSTFQLDKDYTLNVYRLALKTTLKRARRSMELIAREDENPKVAEVIYPIMQVNAIHYPGVDVAVGGMEQRKIHMLARELLPKKVVCIHNPVLTGLDGEGKMSSSKGNFIAVDDSPEEIRAKIKKAYCPAGVVEGNPIMEIAKYFLEYPLTIKRPEKFGGDLTVSSYEELESLFKNKELHPMDLKNAVAEELIKILEPIRKRL
Which results are given for B1?
chloramphenicol concentration at which cells were not viable ([4]; absence of O-methyl-L-tyrosine): 15 micrograms/mL; chloramphenicol concentration at which cells were able to grow ([4]; presence of 1 mM O-methyl-L-tyrosine): 125 micrograms/mL

B2: OAT-RS (1): O-allyl-tyrosine synthetase clone from positive selection and negative FACS screening (protein, listed as Methanococcus jannaschii)
chain: MDEFEMIKRNTSEIISEEELREVLKKDEKSASIGFEPSGKIHLGHYLQIKKMIDLQNAGFDIIILLADLHAYLNQKGELDEIRKIGDYNKKVFEAMGLKAKYVYGSTFQLDKDYTLNVYRLALKTTLKRARRSMELIAREDENPKVAEVIYPIMQVNTYHYAGVDVAVGGMEQRKIHMLARELLPKKVVCIHNPVLTGLDGEGKMSSSKGNFIAVDDSPEEIRAKIKKAYCPAGVVEGNPIMEIAKYFLEYPLTIKRPEKFGGDLTVNSYEELESLFKNKELHPMDLKNAVAEELIKILEPIRKRL
Which “fluorescence enhancement higher than for OAT-RS clone from positive/negative selection using barnase” value [5] does the source give for B2 here?
Its value is “about 6 fold”.
